Where two headings read alike, the source gives them in different places. [8-DEA-tC] = 8-diethylamino tricyclic cytidine analogue (fluorescent), on 2'-deoxyribose
Key:
[1] = test system: complementary strand; test: Quantum yield of fluorescence emission of double-stranded oligonucleotides after adding complementary strand; format: physicochemical; details: for ds Φem: double-stranded oligonucleotide, 1x PBS buffer pH 7.4; for increase in fluorescent quantum yield in duplex DNA as compared with the free nucleoside: matched duplex, depending on neighboring bases
Protocol: (§1) Quantum yields of fluorescence emission were determined using the comparative method of Williams et. al. (Analyst 1983, 108, 1067) and a fluorescence standard of quinine sulfate in 0.1M H2SO4 (Table 1 and FIG. 2). The single-stranded oligonucleotides have quantum yields of fluorescence emission ranging from Φem=0.01-0.03, all brighter than the free 8-DEA-tC nucleoside by up to a factor of five. Addition of the complementary sequences and duplex formation results in further fluorescence increase in all sequences, up to Φem=0.12 for sequence GC. This quantum yield is 20-fold greater than that of the free 8-DEA-tC nucleoside, the largest such increase reported to date for a fluorescent nucleoside analogue.
(§2) All photophysical experiments were measured in a quartz sub-micro cuvette (10 mm path length) purchased from Starnacell Inc. Solutions were prepared in 1×PBS buffer at pH 7.4. Steady state emission scans were recorded using a PTI QuantaMaster QM-400 and absorbances were measured on a Shimadzu UV-1700 Pharmaspec spectrometer. Quantum yield measurements were performed the comparative method of Williams et. al. and measured in duplicate, at minimum.[7] Quinine sulfate in 0.1M H2SO4 was used as a reference standard for all photophysical measurements. Measurements by using a commercial sample of pyrrolo-dC to obtain a fluorescence quantum yield of 0.046, matching the value of 0.05 as reported by the Tor group were validated.[8] All measurements were taken with an absorbance range of 0.01-0.1. Subsequent dilutions were performed stepwise in order to obtain a minimum of five absorbance and emission spectra for quantum yield determinations. Representative data from these quantum yield measurements is plotted below. Quantum yield determinations were obtained using the following equation: […]
Samples of double-stranded oligonucleotides were prepared using a known concentration of single-stranded oligonucleotide and adding a total of 2.4 equivalents of complementary strand at room temperature. A single-strand absorbance and emission were taken prior to the addition of the first 1.2 equivalents of complementary strand for purposes of single-strand calculation and verification of hybridization. An additional 1.2 equivalent is added after the first double-strand to ensure that complete hybridization was achieved. Thermal annealing procedures had no effect on the measurements as expected, given that these sequences were chosen to have no competing, stable secondary structures.

[2] = test system: complementary strand; test: CD melting temperature of oligonucleotide duplexes (ellipticity at 255 nm); format: physicochemical; details: for ΔTm: Tm for natural DNA duplex subtracted from Tm for the 8-DEA-tC-containing duplex; for Tm: duplex 5 μM in PBS pH 7.4
Protocol: UV CD spectra of oligonucleotide duplexes at a concentration of 5 μM in phosphate buffered saline (10 mM sodium phosphate, pH 7.4, […] potassium chloride, 137 mM sodium chloride) were collected at 25° C. in a 1 cm path length cell on an Aviv model 420 spectrophotometer equipped with a Peltier temperature controller. Background-subtracted spectra were smoothed and normalized to concentration using A260 nm as calculated from detector voltage using the following equation and converted to standard units. […] 255 nm was monitored from 15° C. to 75° C. at 1° C. increments. The TM of each duplex was calculated by fitting the raw data to a two-state model in Igor Pro. Melting curves are reported as fraction unfolded.

[3] = UV/Vis absorption and steady state emission spectra; format: physicochemical; details: for ds λmax,abs / ds λmax,em: double-stranded; for ds λmax,abs / ds λmax,em / λmax,abs (ss) / λmax,em (ss): 1x PBS buffer pH 7.4; for λmax,abs (ss) / λmax,em (ss): single-stranded
Protocol: as §2
Normalized absorption and emission plots of single-stranded oligonucleotides and double-stranded oligonucleotides in 1×PBS buffer at pH 7.4 were determined accordingly.

[4] = Quantum yield of fluorescence emission, comparative method of Williams et al., quinine sulfate standard (free nucleosides, single-stranded oligonucleotides); format: physicochemical; details: for ss Φem: single-stranded oligonucleotide, 1x PBS buffer pH 7.4
Protocol: as §1, §2
The determination of quantum yields for single-stranded oligonucleotides containing 8-DEA tC were calculated using the integrated emission intensity measurements of the single strand prior to the addition of the complementary strand, with the following equation. This method was validated by comparison with and confirmed with a SS quantum yield experiment.

[5] = test system: DNA-RNA heteroduplex; test: Fluorescence turn-on response in DNA-RNA heteroduplex; format: physicochemical; details: 1x PBS buffer at pH 7.4
Text: The RNA version (Y═OH) has been synthesized and characterized. […] The shape (conformation) of double-stranded nucleic acids can vary, and there are three major forms: A, B, and Z. Double-stranded DNA is naturally B form. Double-stranded RNA is naturally A form. And a DNA-RNA heteroduplex also naturally takes A form. For that reason, it is possible to use a DNA-RNA heteroduplex to predict fluorescence properties in pure RNA.

[6] = test system: matching complement; test: Visual discrimination of single nucleotide mismatch under hand-held UV lamp; format: physicochemical; details: 0.26 mM in 0.5X PBS buffer, versus oligo alone and mismatch duplex
Protocol: Next, the ability of 8-DEA-tC to distinguish single nucleotide by a visible fluorescence response was tested (FIG. 5). 0.26 mM solutions of GC oligo in 0.5X PBS buffer were prepared with the GC oligo alone, a duplex with the matching complement, and a duplex with an 8-DEA-tC mismatch.

[7] = Quantum yield of fluorescence emission, comparative method of Williams et al., quinine sulfate standard (free nucleosides, single-stranded oligonucleotides); format: physicochemical; details: free nucleoside, 1,4-dioxane
[8] = Viscosity sensitivity of fluorescence in methanol-glycerol mixtures; format: physicochemical; details: 25° C.
Text: It was hypothesized that the C—N bond appending the diethylamino group to tC may provide a molecular rotor effect, enabling non-emissive relaxation coupled to conformational change at the excited state. […] For this reason, it was hypothesized that slowed water dynamics in the major groove of the duplex could cause an increase in the fluorescence of 8-DEA-tC. To test this hypothesis, a comparison of the solvent viscosity sensitivity of fluorescence of the 8-DEA-tC nucleoside with parent tC and 9-(2,2-dicyanovinyl)julolidine (DCVJ, a frequently used reference compound for viscosity effects on fluorescence) using mixtures of glycerol and methanol was performed (see Examples section below).
The responsiveness of (8-DEA)tC, tC, and 9-(2,2-dicyanovinyl)julolidine (DCVJ) to viscosity changes using binary methanol-glycerol mixtures was determined.
Molecular rotors are known to have fluorescent properties that are dependent on the medium viscosity, the fluorescence spectra of parent tC and (8-DEA)tC were examined in methanol-glycerol mixtures ranging from 0 to 100% methanol in glycerol at 25° C. […]
A calibration plot of fluorescence intensity (I) versus viscosity (η) were constructed using the Foster-Hoffman equation ΦF=zη^α, relating the fluorescence quantum yield (ΦF) as a function of viscosity (η) and fluorophore and solvent-specific constants (z, α).

[9] = UV/Vis absorption and steady state emission spectra; format: physicochemical; details: free nucleoside, 1,4-dioxane
[10] = Stern-Volmer analysis of chloride quenching; format: physicochemical; details: 0 mM to 180 mM NaCl
Protocol: To test the ability of the duplex to attenuate chloride quenching of 8-DEA-tC, a Stern-Volmer analysis was performed using the 8-DEA-tC nucleoside and the TT duplex oligonucleotide (see Examples section below). […] In contrast, chloride has a modest quenching effect on 8-DEA-tC when present in the matched TT duplex.
In order to assess the magnitude that chloride, present in our buffers, would quench the fluorescent cytidine analogues, a Stern-Volmer analysis was performed spanning from 0 mM NaCl to 180 mM NaCl to mimic the environment of the 1XPBS buffer used in the fluorescence measurements of the oligomers.
A solution fluorophore was prepared and a known volumes of a 0.5 M NaCl solution were titrated in and the resulting fluorescence change was measured. The dilution factor was taken into account when calculating integrated fluorescence intensity.

[11] = value reported by the Tor group; cited from earlier work

Compound | ds Φem [1] | ΔTm [2] | Tm [2] | ds λmax,abs [3] | ds λmax,em [3] | λmax,abs (ss) [3] | λmax,em (ss) [3] | ss Φem [4] | other results
TA: 5′-CGC-ATX-ATC-G-3′ (SEQ ID NO: 16), X = 8-DEA-tC (DNA CGCATCATCG; DNA, [8-DEA-tC] at 6, backbone not given here) | 0.026 | -1.6 °C | 48.7 °C | 420 nm | 495 (495) nm | 417 nm | 495 (495) nm | 0.014 | –
AA: 5′-CGC-AAX-ATC-G-3′ (SEQ ID NO: 18), X = 8-DEA-tC (DNA CGCAACATCG; DNA, [8-DEA-tC] at 6, backbone not given here) | 0.042 | -2.6 °C | 48.4 °C | 410 nm | 498 nm | 415 nm | 497 nm | 0.008 | fluorescence turn-on effect in DNA-RNA heteroduplex relative to double-stranded DNA [5]: at least three times better
GC: 5′-CGC-AGX-CTC-G-3′ (SEQ ID NO: 12), X = 8-DEA-tC (DNA CGCAGCCTCG; DNA, [8-DEA-tC] at 6, backbone not given here) | 0.12 | -14.5 °C | 49.1 °C | 348 nm | 500 nm | 425 nm | 499 nm | 0.032 | increase in fluorescent quantum yield in duplex DNA as compared with the free nucleoside [1]: 20 fold; visible fluorescence response of matched duplex [6]: large increase in fluorescence
CCN(CC)c1ccc2c(c1)Nc1nc(=O)n([C@H]3CC(O)[C@@H](CO)O3)cc1S2 (stereo partly drawn) [8-DEA-tC, 8-Diethylamino-tricyclic-2′-deoxy-β-D-ribonucleoside] | – | – | – | – | – | – | – | – | increase in Φem when mispaired with A ([1]; 8-DEA-tC opposite A in duplex): less than 2 fold; Φem opposite an abasic site ([1]; 8-DEA-tC opposite abasic site (dSpacer) in duplex): effectively the same as for the free nucleoside; increase in fluorescent quantum yield in duplex DNA as compared with the free nucleoside [1]: ≤ 20 fold; Φem [7]: 0.06; response of fluorescence intensity to viscosity [8]: positively correlated to viscosity; ε ([3]; free nucleoside, 1x PBS buffer): 2700 M⁻¹ cm⁻¹; λmax,abs ([3]; free nucleoside, 1x PBS buffer): 395 nm; λmax,em ([3]; free nucleoside, 1x PBS buffer): 493 nm; λmax,abs [9]: 389 nm; λmax,em [9]: 524 nm; effect of chloride on fluorescence [10]: more fluorescent with increasing chloride concentration; sensitivity to quenching by protic solvent relative to parent tC [4]: approximately twice as sensitive; Φem in deuterated buffer ([4]; deuterated 1X PBS buffer): 0.012; Φem ([4]; free nucleoside, 1x PBS buffer): 0.006; increase of Φem on solvent change ([4]; free nucleoside, 1x PBS buffer to 1,4-dioxane): 10 fold
CA: 5′-CGC-ACX-ATC-G-3′ (SEQ ID NO: 13), X = 8-DEA-tC (DNA CGCACCATCG; DNA, [8-DEA-tC] at 6, backbone not given here) | 0.017 | +2.1 °C | 57.4 °C | 410 nm | 494 nm | 420 nm | 493 nm | 0.014 | –
Cc1cc2cn([C@H]3C[C@H](O)[C@@H](CO)O3)c(=O)nc2[nH]1 [pyrrolo-dC, reference compound] | – | – | – | – | – | – | – | – | fluorescence quantum yield [11]: 0.05; fluorescence quantum yield ([4]; commercial sample, method validation): 0.046
GG: 5′-CGC-AGX-GTC-G-3′ (SEQ ID NO: 14), X = 8-DEA-tC (DNA CGCAGCGTCG; DNA, [8-DEA-tC] at 6, backbone not given here) | 0.056 | -7.0 °C | 58.2 °C | 400 nm | 499 nm | 415 nm | 498 nm | 0.027 | –
GA: 5′-CGC-AGX-ATC-G-3′ (SEQ ID NO: 10), X = 8-DEA-tC (DNA CGCAGCATCG; DNA, [8-DEA-tC] at 6, backbone not given here) | 0.050 | -5.1 °C | 50.7 °C | 422 nm | 499(499) nm | 425 nm | 499(499) nm | 0.020 | –
N#CC(C#N)=Cc1cc2c3c(c1)CCCN3CCC2 [DCVJ, 9-(2,2-dicyanovinyl)julolidine, reference compound] | – | – | – | – | – | – | – | – | response of fluorescence intensity to viscosity [8]: three-fold greater
CC: 5′-CGC-ACX-CTC-G-3′ (SEQ ID NO: 15), X = 8-DEA-tC (DNA CGCACCCTCG; DNA, [8-DEA-tC] at 6, backbone not given here) | 0.024 | +6.7 °C | 60.2 °C | 413 nm | 496 (496) nm | 421 nm | 496 (496) nm | 0.013 | –
